What is called mortality is the percentage killed.

For one series, the system named is Spodoptera frugiperda. The series can be described thus: Spodoptera frugiperda - spray test (cotton leaves). The series is classed as in vivo. How it is done: (§1) The expected efficacy of a given combination of two compounds is calculated as follows (see Colby, S. R., “Calculating Synergistic and antagonistic Responses of Herbicide Combinations”, Weeds 15, pp. 20-22, 1967): • If • X is the efficacy expressed in % mortality of the untreated control for test compound A at a concentration of m ppm respectively m g/ha, • Y is the efficacy expressed in % mortality of the untreated control for test compound B at a concentration of n ppm respectively n g/ha, • E is the efficacy expressed in % mortality of the untreated control using the mixture of A and B at m and n ppm respectively m and n g/ha, • then is
(§2) If the observed insecticidal efficacy of the combination is higher than the one calculated as “E”, then the combination of the two compounds is more than additive, i.e. there is a synergistic effect.
Spodoptera frugiperda—Spray Test
(§3) • Solvent: 7 parts by weight of dimethylformamide • Emulsifier: alkylaryl polyglycol ether
(§4) To produce a suitable preparation of active compound, 1 part by weight of active compound is mixed with the stated amount of solvent and is diluted with water, containing an emulsifier concentration of 1000 ppm, to the desired concentration. Further test concentrations are prepared by dilution with emulsifier containing water.
Cotton leaves (Gossypium hirsutum) are treated by being sprayed with the preparation of the active compound of the desired concentration and are infested with caterpillars of the fall army worm (Spodoptera frugiperda).
After the specified period of time mortality in % is determined. 100% means all the caterpillars have been killed and 0% means none of the caterpillars have been killed. The mortality values determined thus are recalculated using the Colby-formula (see above).

A further series deals with Phaedon cochleariae. The series is described as follows: Phaedon cochleariae - spray test (cabbage leaves). The series is classed as in vivo. Here is the method: as §1, §2
Phaedon cochleariae—Spray Test
as §3, §4
Cabbage leaves (Brassica oleracea) are treated by being sprayed with the preparation of the active compound of the desired concentration and are infested with mustard beetle larvae (Phaedon cochleariae).
After the specified period of time mortality in % is determined. 100% means all the beetle larvae have been killed and 0% means none of the beetle larvae have been killed. The mortality values determined thus are recalculated using the Colby-formula (see sheet 1).

The mark [1] stands for this setting: Spodoptera frugiperda, 72 h, read-out: Mortality in % after 3 days.

Read-outs that look alike come from different tables or passages of the source.

As to tetraniliprole, the “Mortality in % after 2 days” value with Spodoptera frugiperda (0.06 ppm, after 2 days, caterpillars on sprayed cotton leaves) came out at 20%; in the series with Phaedon cochleariae (0.12 ppm), 40%. Also, the entries for the “Mortality in % after 3 days” value with Spodoptera frugiperda (0.06 ppm) and in the series on Spodoptera frugiperda (0.12 ppm) were 30% and 80%, respectively. For the same molecule, the “Mortality in % after 6 days” value in the series with Spodoptera frugiperda (0.06 ppm, after 6 days) is on record as 60%. For the same molecule, the “Mortality in % after 1 day” value in the series on Phaedon cochleariae (0.12 ppm) is 10%; with Phaedon cochleariae (0.24 ppm, beetle larvae on sprayed cabbage leaves) it was 30%.

For the molecule `CS(=O)(=O)Oc1cccc(Cl)c1C1CC(c2csc(C3CCN(C(=O)Cn4nc(C(F)F)cc4C(F)F)CC3)n2)=NO1` (centres unmarked) [Fluoxapiprolin, fluoxapiprolin], in the series with Phaedon cochleariae (3 ppm), the “Mortality in % after 1 day” value is 0% and the “Mortality in % after 2 days” value worked out at 0%. Also, the “Mortality in % after 1 day” value in the series on Phaedon cochleariae (6 ppm) was found to be 0%.

Take `CON(C(=O)c1cn(C)nc1C(F)F)C(C)Cc1c(Cl)cc(Cl)cc1Cl` (racemic) [Pydiflumetofen, 3-(difluoromethyl)-N-methoxy-1-methyl-N—[(RS)-1-methyl-2-(2,4,6-trichlorophenyl)ethyl]-1H-pyrazole-4-carboxamide]: the mortality at 1.5 ppm was determined as 0% in the series with Spodoptera frugiperda (Spodoptera frugiperda, 48 h, read-out: Mortality in % after 2 days); 0% in the series with Spodoptera frugiperda (setting [1]); 0% in the series on Spodoptera frugiperda (Spodoptera frugiperda, 144 h, read-out: Mortality in % after 6 days). Besides, the mortality at 3 ppm with Spodoptera frugiperda (setting [1]) amounted to 0%.

The values above are taken from patent US12490740B2, “Active compound combinations having insecticidal properties” (Bayer Aktiengesellschaft, priority 2019, dated 2025).
